From US20230365592A1 (Agios Pharmaceuticals, Inc., priority 2022, published 2023) come the findings set out here.

For one assay, the target named is T1, human PAH with the R408W mutation (Homo sapiens, UniProt P00439, R408W).
T1 construct: expressed in transfected cells
T1 sequence (P00439 1-452 R408W): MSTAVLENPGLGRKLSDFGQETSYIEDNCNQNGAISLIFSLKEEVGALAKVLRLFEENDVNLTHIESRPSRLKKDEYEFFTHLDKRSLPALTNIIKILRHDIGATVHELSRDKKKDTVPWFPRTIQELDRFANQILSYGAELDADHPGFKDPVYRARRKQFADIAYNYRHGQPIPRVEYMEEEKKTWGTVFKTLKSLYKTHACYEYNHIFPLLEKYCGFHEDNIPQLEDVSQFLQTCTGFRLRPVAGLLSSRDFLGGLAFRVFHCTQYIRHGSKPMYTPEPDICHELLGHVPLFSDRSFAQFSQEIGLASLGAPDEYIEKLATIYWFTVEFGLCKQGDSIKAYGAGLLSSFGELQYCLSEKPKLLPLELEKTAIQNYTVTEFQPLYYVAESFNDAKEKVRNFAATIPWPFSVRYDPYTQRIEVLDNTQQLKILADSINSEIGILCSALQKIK
In words: Cell Based Phenylalanine Flux Assay.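 Also: after compound treatment, cells received sepiapterin plus isotope-labelled Phenylalanine for 4 hours, then labelled Tyrosine in the medium was quantified, 10-point 2-fold dilution series run in duplicate.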 Particulars: A375 cells expressing R408W PAH; 24 hrs with compound, then 20 µM sepiapterin and 800 µM 13C9,15N-Phenylalanine for 4 hours; 13C-Tyrosine by LC-MS; average where tested multiple times; read-out: AC50.
In the case of `Cn1ccc(-c2ncc(C(=O)N3CCc4[nH]cnc4[C@H]3c3cc4ccccn4n3)o2)n1` (single isomer, unassigned), the concentration at half-maximal activity (AC50) lay in the range of 1000 to 5000 nM. Take `O=C(C1CCC1)N1CCc2[nH]cnc2C1c1cc2ccccn2n1` (stereo not shown): the AC50 was greater than 5000 nM. On the same count and under the same terms, as for `Cn1cc(-c2nc(C3CC3)c(C(=O)N3CCc4[nH]cnc4C3c3cc4ccccn4n3)o2)cn1` (stereo not shown), the figure is greater than 5000 nM; as for `FC(F)c1cccn2nc(C3c4nc[nH]c4CCN3c3nnc(-c4cnccn4)o3)cc12` (stereo not shown), 1000 to 5000 nM. Take `CC(C)(O)c1nc(C(=O)N2CCc3[nH]cnc3C2c2cc3ccccn3n2)no1` (stereo not shown): the AC50 was greater than 5000 nM. With `FC(F)c1cccn2nc(C3c4nc[nH]c4CCN3c3nc4ccccc4o3)cc12` (stereo not shown), the AC50 is greater than 5000 nM. Still for that read-out and setting: as for `Cc1cccn2nc(C3c4nc[nH]c4CCN3c3nnc(-c4cccnn4)o3)cc12` (stereo not shown), the figure is 1000 to 5000 nM; as for `Cc1ncccc1-c1nnc(N2CCc3[nH]cnc3C2c2cc3c(C4CC4)cccn3n2)o1` (stereo not shown), 1000 to 5000 nM.

The assay is the same for the next values; noted with them: A375 cells expressing human PAH R408W; 24 hrs compound incubation; 13C-Tyrosine by LC-MS; average where tested multiple times; read-out: AC50.
Turning to `FC(F)(F)Oc1cccn2nc([C@@H]3c4nc[nH]c4CCN3c3nnc(C(F)(F)F)o3)cc12` [Example 2253, (S)-2-(4-(4-(trifluoromethoxy)pyrazolo[1,5-a]pyridin-2-yl)-1,4,6,7-tetrahydro-5H-imidazo[4,5-c]pyridin-5-yl)-5-(trifluoromethyl)-1,3,4-oxadiazole], the concentration at half-maximal activity (AC50) was less than 500 nM. Still for that read-out and setting: as for `Cn1nc(C(F)(F)F)nc1C(=O)N1CCc2[nH]cnc2[C@H]1c1cc2ccccn2n1` [Example 2372, (S)-(1-methyl-3-(trifluoromethyl)-1H-1,2,4-triazol-5-yl)(4-(pyrazolo[1,5-a]pyridin-2-yl)-6,7-dihydro-1H-imidazo[4,5-c]pyridin-5(4H)-yl)methanone], the figure is 1000 to 5000 nM; as for `FC(F)(F)c1cnc(N2CCc3[nH]cnc3[C@H]2c2cc3cccc(Cl)n3n2)nc1` [Example 1800, (S)-4-(7-chloropyrazolo[1,5-a]pyridin-2-yl)-5-(5-(trifluoromethyl)pyrimidin-2-yl)-4,5,6,7-tetrahydro-1H-imidazo[4,5-c]pyridine], less than 500 nM; as for `CC(C)c1cccn2nc([C@@H]3c4nc[nH]c4CCN3C(=O)c3nnc(C4CC4)o3)cc12` [Example 1882, (S)-(5-cyclopropyl-1,3,4-oxadiazol-2-yl)(4-(4-isopropylpyrazolo[1,5-a]pyridin-2-yl)-1,4,6,7-tetrahydro-5H-imidazo[4,5-c]pyridin-5-yl)methanone], less than 500 nM. On the same count and under the same terms, the value for `CC(C)(O)c1nc(C(F)F)c(C(=O)N2CCc3[nH]cnc3[C@H]2c2cc3cc(C(F)(F)F)ccn3n2)o1` [Example 2406, (S)-(4-(difluoromethyl)-2-(2-hydroxypropan-2-yl)oxazol-5-yl)(4-(5-(trifluoromethyl)pyrazolo[1,5-a]pyridin-2-yl)-6,7-dihydro-1H-imidazo[4,5-c]pyridin-5(4H)-yl)methanone] was less than 500 nM; that for `Cc1cccn2nc([C@H]3c4nc[nH]c4CCN3c3nnc(-c4c(F)cccc4F)o3)cc12` [Example 1844, (R)-2-(2,6-difluorophenyl)-5-(4-(4-methylpyrazolo[1,5-a]pyridin-2-yl)-6,7-dihydro-1H-imidazo[4,5-c]pyridin-5(4H)-yl)-1,3,4-oxadiazole] was greater than 5000 nM; that for `Nc1cc(C(=O)N2CCc3[nH]cnc3[C@H]2c2cc3ccccn3n2)n(C(F)F)n1` [Example 2370, (S)-(3-amino-1-(difluoromethyl)-1H-pyrazol-5-yl)(4-(pyrazolo[1,5-a]pyridin-2-yl)-6,7-dihydro-1H-imidazo[4,5-c]pyridin-5(4H)-yl)methanone] was 1000 to 5000 nM. Still for that read-out and setting: the value for `O=C(c1nc2ccccc2s1)N1CCc2[nH]cnc2[C@@H]1c1cc2c(C(F)F)cccn2n1` [Example 2023, (R)-benzo[d]thiazol-2-yl(4-(4-(difluoromethyl)pyrazolo[1,5-a]pyridin-2-yl)-1,4,6,7-tetrahydro-5H-imidazo[4,5-c]pyridin-5-yl)methanone] was greater than 5000 nM; that for `FC(F)(F)Oc1cccn2nc([C@@H]3c4nc[nH]c4CCN3c3ncccn3)cc12` [Example 2270, (S)-5-(pyrimidin-2-yl)-4-(4-(trifluoromethoxy)pyrazolo[1,5-a]pyridin-2-yl)-4,5,6,7-tetrahydro-1H-imidazo[4,5-c]pyridine] was less than 500 nM; that for `CC(O)c1nc(Cl)c(C(=O)N2CCc3[nH]cnc3[C@H]2c2cc3ccccn3n2)o1` (single isomer, unassigned) [Example 2376] was 1000 to 5000 nM.

Still in this assay, the particulars now being: A375 cells expressing human R408W PAH; 24 hrs compound incubation; 13C-Tyrosine by LC-MS; average where tested multiple times; read-out: AC50.
Regarding `O=C(c1nnc(-c2ncccn2)o1)N1CCc2[nH]cnc2[C@@H]1c1cc2c(F)cccn2n1` [Example 1312, (R)-(4-(4-fluoropyrazolo[1,5-a]pyridin-2-yl)-6,7-dihydro-1H-imidazo[4,5-c]pyridin-5(4H)-yl)(5-(pyrimidin-2-yl)-1,3,4-oxadiazol-2-yl)methanone], the AC50 lay in the range of 1000 to 5000 nM. Still for that read-out and setting: as for `O=C(c1ccnn1C(F)F)N1CCc2[nH]cnc2[C@H]1c1cc2c(F)cccn2n1` [Example 776, (S)-(1-(difluoromethyl)-1H-pyrazol-5-yl)(4-(4-fluoropyrazolo[1,5-a]pyridin-2-yl)-6,7-dihydro-1H-imidazo[4,5-c]pyridin-5(4H)-yl)methanone], the figure is less than 500 nM.

Turning to `Cc1cccn2nc([C@@H]3c4nc[nH]c4CCN3C(=O)c3ccnn3-c3ccccn3)cc12` [Example 862, (S)-(4-(4-methylpyrazolo[1,5-a]pyridin-2-yl)-6,7-dihydro-1H-imidazo[4,5-c]pyridin-5(4H)-yl)(1-(pyridin-2-yl)-1H-pyrazol-5-yl)methanone], the AC50 is less than 500 nM.

With `Clc1cccn2nc([C@H]3c4nc[nH]c4CCN3c3ncccn3)cc12` [Example 1665, (R)-4-(4-chloropyrazolo[1,5-a]pyridin-2-yl)-5-(pyrimidin-2-yl)-4,5,6,7-tetrahydro-1H-imidazo[4,5-c]pyridine], the AC50 is 1000 to 5000 nM. With `Cc1c(-c2nnc(C(=O)N3CCc4[nH]cnc4[C@@H]3c3cc4cccc(C(F)(F)F)n4n3)o2)cnn1C` [Example 1191, (R)-(5-(1,5-dimethyl-1H-pyrazol-4-yl)-1,3,4-oxadiazol-2-yl)(4-(7-(trifluoromethyl)pyrazolo[1,5-a]pyridin-2-yl)-6,7-dihydro-1H-imidazo[4,5-c]pyridin-5(4H)-yl)methanone], the AC50 was in the range of 1000 to 5000 nM.

Consider `CCOc1cccc2cc([C@H]3c4nc[nH]c4CCN3C(=O)c3nnc(C(C)(C)F)o3)nn12` [Example 1243, (R)-(4-(7-ethoxypyrazolo[1,5-a]pyridin-2-yl)-6,7-dihydro-1H-imidazo[4,5-c]pyridin-5(4H)-yl)(5-(2-fluoropropan-2-yl)-1,3,4-oxadiazol-2-yl)methanone], for which the AC50 was 1000 to 5000 nM. Still for that read-out and setting: the value for `O=C(c1nnc(-c2cccnc2)o1)N1CCc2[nH]cnc2[C@@H]1c1cc2c(Cl)cccn2n1` [Example 1293, (R)-(4-(4-chloropyrazolo[1,5-a]pyridin-2-yl)-6,7-dihydro-1H-imidazo[4,5-c]pyridin-5(4H)-yl)(5-(pyridin-3-yl)-1,3,4-oxadiazol-2-yl)methanone] was 1000 to 5000 nM; that for `Cc1cccn2nc([C@H]3c4nc[nH]c4CCN3C(=O)c3nnc(-c4ccn(C(F)F)n4)o3)cc12` [Example 823, (R)-(5-(1-(difluoromethyl)-1H-pyrazol-3-yl)-1,3,4-oxadiazol-2-yl)(4-(4-methylpyrazolo[1,5-a]pyridin-2-yl)-6,7-dihydro-1H-imidazo[4,5-c]pyridin-5(4H)-yl)methanone] was 1000 to 5000 nM; that for `Cc1ccc(-c2nnc(C(=O)N3CCc4[nH]cnc4[C@@H]3c3cc4ccccn4n3)o2)nc1` [Example 672, (R)-(5-(5-methylpyridin-2-yl)-1,3,4-oxadiazol-2-yl)(4-(pyrazolo[1,5-a]pyridin-2-yl)-6,7-dihydro-1H-imidazo[4,5-c]pyridin-5(4H)-yl)methanone] was greater than 5000 nM. In the case of `Cc1cccc2cc([C@H]3c4nc[nH]c4CCN3C(=O)c3nnc(-c4cnccn4)o3)nn12` [Example 1338, (R)-(4-(7-methylpyrazolo[1,5-a]pyridin-2-yl)-6,7-dihydro-1H-imidazo[4,5-c]pyridin-5(4H)-yl)(5-(pyrazin-2-yl)-1,3,4-oxadiazol-2-yl)methanone], the concentration at half-maximal activity (AC50) was greater than 5000 nM. The same measure, in the same setting: as for `O=C(c1nnc(-c2ncccc2F)o1)N1CCc2[nH]cnc2[C@@H]1c1cc2ccccn2n1` [Example 617, (R)-(5-(3-fluoropyridin-2-yl)-1,3,4-oxadiazol-2-yl)(4-(pyrazolo[1,5-a]pyridin-2-yl)-6,7-dihydro-1H-imidazo[4,5-c]pyridin-5(4H)-yl)methanone], the figure is greater than 5000 nM.

With `Cc1ccc2c(C(=O)N3CCc4[nH]cnc4[C@H]3c3cc4cccc(F)n4n3)cnn2c1` [Example 1786, (S)-(4-(7-fluoropyrazolo[1,5-a]pyridin-2-yl)-6,7-dihydro-1H-imidazo[4,5-c]pyridin-5(4H)-yl)(6-methylpyrazolo[1,5-a]pyridin-3-yl)methanone], the AC50 was 500 to 1000 nM. On the same count and under the same terms, as for `O=C(c1nnc(-c2ccn(C(F)(F)F)n2)o1)N1CCc2[nH]cnc2[C@H]1c1cc2cccc(C(F)(F)F)n2n1` [Example 1542, (S)-(5-(1-(trifluoromethyl)-1H-pyrazol-3-yl)-1,3,4-oxadiazol-2-yl)(4-(7-(trifluoromethyl)pyrazolo[1,5-a]pyridin-2-yl)-6,7-dihydro-1H-imidazo[4,5-c]pyridin-5(4H)-yl)methanone], the figure is 500 to 1000 nM.

A word on the AC50: it is the concentration at which the activity in the assay is half-maximal.
